According to patent US6716851B2, “Substituted 2-aryl-4-arylaminopyrimidines and analogs as activators or caspases and inducers of apoptosis and the use thereof” (Cytovia, Inc., priority 2000, dated 2004):
Structures can show the parent of a compound that is named as a salt.

Key:
[1] = tested on: ZR-75-1 cells; experiment: Caspase cascade activation (N-(Ac-DEVD)-N'-ethoxycarbonyl-R110 fluorogenic substrate) in ZR-75-1 cells; type: cell-based, Human; settings: ZR-75-1, 48 h incubation; for EC50: Homo sapiens, caspase activation potency; for ZR Ratio 48 hr: caspase activity: ratio of net RFU of test compound to control
Outline: (§1)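 Cells (0.65×10^6/ml) exposed 48 h at 37 °C to compound (0.016-10 μM final), then lysed with 14 μM DEVD-R110 substrate buffer (PIPES pH 7.2, DTT, lysolecithin) for 3 h at room temperature. Net fluorescence (485/530 nm) relative to control; EC50 by sigmoidal dose-response.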

[2] = tested on: T-47D cells; experiment: Caspase cascade activation (N-(Ac-DEVD)-N'-ethoxycarbonyl-R110 fluorogenic substrate) in T-47D cells; type: cell-based, Human; settings: 48 h incubation; for EC50: Homo sapiens, T47D, caspase activation potency, read-out: T47 EC50; for T47 Ratio 48 hr: caspase activity: ratio of net RFU of test compound to control
Outline: as §1

| EC50 [1] [µM] | EC50 [2] [µM] | SMILES | ZR Ratio 48 hr [1] | T47 Ratio 48 hr [2] |
| --- | --- | --- | --- | --- |
| 0.167 | 0.295 | COc1cc(Nc2cc(C(F)(F)F)nc(-c3cccnc3)n2)c(OC)cc1Cl [Example 130, 4-(4-Chloro-2,5-dimethoxyanilino)-2-(3-pyridinyl)-6-(trifluoromethyl)pyrimidine hydrochloride] | 9.7 | 11.3 |
| > 5 | > 5 | COc1ccc(Cl)c(Nc2cc(C)nc(N3CCOCC3)n2)c1 [Example 131, 4-(6-Chloro-3-methoxyanilino)-2-morpholino-6-(methyl)pyrimidine] | 1.2 | 1.2 |
| > 5 | 0.807 | COc1cc(Nc2cc(C(F)(F)F)nc(-c3cccnc3)n2)c(C(C)=O)cc1OC [Example 134, 4-(2-Acetyl-4,5-dimethoxyanilino)-2-(3-pyridinyl)-6-(trifluoromethyl)pyrimidine] | 1.5 | 16.5 |
| 0.204 | 0.335 | Cc1cc(Nc2cc(C(F)(F)F)nc(-c3ccccn3)n2)c(C)cc1O.Cl [Example 147, 4-(2,5-Dimethyl-4-hydroxyanilino)-2-(2-pyridinyl)-6-(trifluoromethyl)pyrimidine hydrochloride] | 8.4 | 13.3 |
| 0.243 | 0.412 | Cc1cc(Nc2cc(C(F)(F)F)nc(-c3cnccn3)n2)c(C)cc1O.Cl [Example 148, 4-(2,5-Dimethyl-4-hydroxyanilino)-(2-pyrazinyl)-6-(trifluoromethyl)pyrimidine hydrochloride] | 8.4 | 13.8 |
| 0.046 | 0.075 | Cc1cc(Nc2cc(C(F)(F)F)nc(-c3ccncc3)n2)c(C)cc1O [Example 149, 4-(2,5-Dimethyl-4-hydroxyanilino)-2-(4-pyridinyl)-6-(trifluoromethyl)pyrimidine] | 10.0 | 16.0 |
| 0.133 | 0.135 | COc1cc(Nc2cc(C(F)(F)F)nc(-c3ccccn3)n2)c(OC)cc1Cl.Cl [Example 150, 4-(4-Chloro-2,5-dimethoxyanilino)-2-(2-pyridinyl)-6-(trifluoromethyl)pyrimidine hydrochloride] | 9.7 | 11.0 |
| 0.276 | 0.388 | COc1cc(Nc2cc(C(F)(F)F)nc(-c3cnccn3)n2)c(OC)cc1Cl.Cl [Example 151, 4-(4-Chloro-2,5-dimethoxyanilino)-(2-pyrazinyl)-6-(trifluoromethyl)pyrimidine hydrochloride] | 8.6 | 12.0 |
| 0.212 | 0.035 | COc1cc(C)c(Nc2cc(C(F)(F)F)nc(-c3ccccn3)n2)cc1OC.Cl [Example 152, 4-(4,5-Dimethoxy-2-methylanilino)-2-(2-pyridinyl)-6-(trifluoromethyl)pyrimidine hydrochloride] | 8.6 | 14.6 |
| 0.146 | 0.043 | COc1cc(C)c(Nc2cc(C(F)(F)F)nc(-c3cnccn3)n2)cc1OC.Cl [Example 153, 4-(4,5-Dimethoxy-2-methylanilino)-2-(2-pyrazinyl)-6-(trifluoromethyl)pyrimidine hydrochloride] | 9.3 | 15.7 |
| 0.014 | 0.022 | COc1cc(C)c(Nc2cc(C(F)(F)F)nc(-c3ccncc3)n2)cc1OC.Cl [Example 154, 4-(4,5-Dimethoxy-2-methylanilino)-2-(4-pyridinyl)-6-(trifluoromethyl)pyrimidine hydrochloride] | 7.9 | 6.1 |
| 2.26 | > 5 | Cl.FC(F)(F)Oc1cccc(Nc2cc(C(F)(F)F)nc(-c3ccccn3)n2)c1 [Example 156, 4-(3-Trifluoromethoxyanilino)-2-(2-pyridinyl)-6-(trifluoromethyl)pyrimidine hydrochloride] | 4.1 | 1.7 |
| 0.197 | 0.043 | COc1cc(C)c(Nc2cc(C(F)(F)F)nc(-c3cccnc3)n2)cc1OC [Example 157, 4-(4,5-Dimethoxy-2-methylanilino)-2-(3-pyridinyl)-6-(trifluoromethyl)pyrimidine] | 6.4 | 6.6 |
| 0.133 | 0.509 | COc1cc(Nc2cc(C(F)(F)F)nc(-c3ccncc3)n2)c(OC)cc1Cl.Cl [Example 158, 4-(4-Chloro-2,5-dimethoxyanilino)-2-(4-pyridinyl)-6-(trifluoromethyl)pyrimidine hydrochloride] | 6.0 | 9.5 |
| > 5 | > 5 | COc1cccc(N(C)c2cc(C(F)(F)F)nc(-c3ccccn3)n2)c1 [Example 160, 4-(N-Methyl-3-methoxyanilino)-2-(2-pyridinyl)-6-trifluoromethyl-pyrimidine] | 1.4 | 1.0 |
| 0.086 | 0.079 | COc1cc(Nc2cc(C(F)(F)F)nc(-c3ccncc3)n2)cc(OC)c1 [Example 161, 4-(3,5-Dimethoxyanilino)-2-(4-pyridinyl)-6-trifluoromethyl-pyrimidine] | 5.1 | 10.7 |
| 0.36 | 0.272 | COc1ccc(Cl)cc1Nc1cc(C(F)(F)F)nc(-c2ccncc2)n1 [Example 162, 4-(5-Chloro-2-methoxyanilino)-2-(4-pyridinyl)-6-trifluoromethyl-pyrimidine] | 7.3 | 11.3 |
| > 5 | > 5 | COc1cc(Nc2cc(C(F)(F)F)nc(-c3cc(Cl)nc(Cl)c3)n2)cc(OC)c1 [Example 163, 4-(3,5-Dimethoxyanilino)-2-(2,6-dichloro-4-pyridinyl)-6-trifluoromethylpyrimidine] | 1.6 | 1.1 |
| > 5 | > 5 | COc1ccc(Cl)c(Nc2cc(C(F)(F)F)nc(-c3cc(Cl)nc(Cl)c3)n2)c1 [Example 164, 4-(2-Chloro-5-methoxyanilino)-2-(2,6-dichloro-4-pyridinyl)-6-trifluoromethyl-pyrimidine] | 1.3 | 1.3 |
| 0.532 | 0.87 | FC(F)(F)c1cc(Nc2ccc3[nH]ccc3c2)nc(-c2cccnc2)n1 [Example 166, 4-(1 H-5-Indolyl-amino)-2-(3-pyridinyl)-6-trifluoromethyl-pyrimidine] | 3.3 | 8.0 |
| > 5 | 0.149 | COc1ccc(Nc2cc(C)nc(-c3ccccn3)n2)cc1OC [Example 176, 4-(3,4-Dimethoxyanilino)-6-methyl-2-(2-pyridinyl)pyrimidine] | 1.9 | 4.5 |
| 0.698 | 0.637 | COc1ccc(Cl)cc1Nc1cc(C(F)(F)F)nc(-c2cccnc2)n1 [Example 180, 4-(5-Chloro-2-methoxyanilino)-2-(3-pyridinyl)-6-trifluoromethylpyrimidine] | 8.7 | 15.1 |
| 0.075 | 0.082 | COc1cc(Nc2cc(C(F)(F)F)nc(-c3cnccn3)n2)cc(OC)c1 [Example 183, 4-(3,5-Dimethoxyanilino)-2-(2-pyrazinyl)-6-trifluoromethylpyrimidine] | 11.5 | 17.3 |
| 0.271 | 0.429 | Cc1ccc(O)cc1Nc1cc(C(F)(F)F)nc(-c2ccccn2)n1 [Example 188, 4-(5-Hydroxy-2-methylanilino)-2-(2-pyridinyl)-6-trifluoromethylpyrimidine] | 9.3 | 3.6 |
| 0.032 | 0.029 | COc1ccc(C)cc1Nc1cc(C(F)(F)F)nc(-c2ccccn2)n1 [Example 190, 4-(2-Methoxy-5-methylanilino)-2-(2-pyridinyl)-6-trifluoromethylpyrimidine] | 16.7 | 19.3 |
| > 5 | 0.419 | Oc1ccc(Cl)cc1Nc1cc(C(F)(F)F)nc(-c2cnccn2)n1 [Example 198, 4-(5-Chloro-2-hydroxyanilino)-2-(2-pyrazinyl)-6-trifluoromethylpyrimidine] | 1.8 | 3.3 |
| > 5 | > 5 | COc1ccc(OC)c(CCNc2cc(C(F)(F)F)nc(-c3cccnc3)n2)c1 [Example 200, 4-(2,5-Dimethoxyphenylethylamino)-2-(3-pyridinyl)-6-trifluoromethylpyrimidine] | 1.4 | 1.2 |
| 0.173 | 0.333 | Cc1cc(Nc2cc(C(F)(F)F)nc(-c3cccnc3)n2)c(C)cc1O [Example 201, 4-(2,5-Dimethyl-4-hydroxyanilino)-2-(3-pyridinyl)-6-trifluoromethylpyrimidine] | 4.8 | 15.7 |
| 2.63 | 0.843 | COc1cc(C#N)c(Nc2cc(C(F)(F)F)nc(-c3cccnc3)n2)cc1OC [Example 203, 4-(2-Cyano-4,5-dimethoxyanilino)-2-(3-pyridinyl)-6-trifluoromethylpyrimidine] | 3.4 | 10.7 |
